Reference: US10227312B2, “Glucosylceramide synthase inhibitors for the treatment of diseases” (BIOMARIN PHARMACEUTICAL INC., priority 2015, dated 2019)

Columns and labels:
[1] = target: glucosylceramide synthase (GCS) (Canis lupus familiaris, UniProt A0A8I3MXG6); assay: GCS Enzymatic Assay (MDCK lysates); assay type: biochemical, canine; conditions: MDCK cell lysate, C6-NBD-Ceramide, 37° C. for 1 hour, LC/MS; read-out: Assay 1 (Enzyme Assay; MDCK lysates) IC50
Method: Madin-Darby canine kidney (MDCK) cell lysate was prepared using M-PER Mammalian Protein Extraction Reagent (Thermal Scientific) in the presence of a protease inhibitor cocktail (Roche). Protein concentration was determined using BCA assay kit (Pierce). […] 0.1% DMSO was used as mock treatment or control. The reaction was terminated by adding 100 μL acetonitrile solution and subjected to LC/MS analysis.
The quantitative analysis of NBD-Ceramide and glucosylceramide was performed on a Shimadzu ultra-fast liquid chromatography (Shimadzu, Japan) coupled with API 4000 triple quadrupole mass spectrometer (Applied Biosystems, Concord, Ontario, Canada). Sample separation was conducted on a Waters Xbridge™ BEH130 C18, 100 mm×4.6 mm i.d, 3.5 μm (Milford, Mass., USA). The mobile phase consisted of water and acetonitrile supplemented with 0.1% formic acid (v/v). The flow rate was 1.0 mL/min. The initial mobile phase was 20% acetonitrile and was ramped in a linear fashion to 50% acetonitrile in 0.4 min. From 0.4 to 1.5 min, the gradient was ramped to 98% acetonitrile, and then was held at […] until 8.0 min. Acetonitrile was reset to 20% in 1.5 min, and maintained until 10.0 min. The total run time was 10.0 min. The MS/MS detection was performed in ESI positive mode. […] The cell lysate was diluted with equal volume of acetonitrile. Aliquots of 50 μL diluted samples were added to 1.5 mL tubes, and 100 μL of acetonitrile containing internal standard (100 ng/mL tolbutamide) were added for protein precipitation. The mixture were vortexed and then centrifuged at 13000 rpm for 10 min. 70 μL of supernatant were mixed with 140 μL of H2O and the final solution were injected for LC/MS/MS analysis and IC50's and/or percent inhibitions calculated.

[2] = system: K562 cells; assay: K562 Cell-Based Assay; conditions: Homo sapiens, NBD-Ceramide, LCMS, read-out: Assay 2 (Cellular Assay; K562 cells) IC50
Method: This assay was modified based on the study by Gupta et al. (J. Lipid Res. 2010, 51, 866). K562 cells were seeded into 12-well plates at 3×10^5 cells/well/mL in RPMI-1640 medium with 5% FBS and incubated at 37° C. for 24 h. One μL of a compound described herein at desired concentration (10 mM, 1 mM, 0.1 mM, 0.01 mM, 0.001 mM and 0.0001 mM in DMSO) or DMSO was added into the corresponding well and mixed. Cells were incubated at 37° C. for 4 h. Then 100 μL of RPMI-1640 medium containing 110 μM of NBD-Ceramide, 11% BSA, 5% FBS, and corresponding concentration of a compound described herein was added into each well and mixed. Cells were incubated for additional 0.5 h at 37° C., followed by washing the cells with ice-cold PBS (pH 7.4) twice with centrifugation and resuspended with 50 μL cold PBS+1% Triton X-100. The cell lysate was sonicated for 15 min before adding equal volume of methanol for LCMS analysis. A small aliquot of cell lysate was used to determine protein concentration by BCA assay kit. The HPLC equipment and methods used in Assay 1 were used in this assay as well and IC50's were calculated.

glucosylceramide synthase (GCS), sequence (A0A8I3MXG6 1-394): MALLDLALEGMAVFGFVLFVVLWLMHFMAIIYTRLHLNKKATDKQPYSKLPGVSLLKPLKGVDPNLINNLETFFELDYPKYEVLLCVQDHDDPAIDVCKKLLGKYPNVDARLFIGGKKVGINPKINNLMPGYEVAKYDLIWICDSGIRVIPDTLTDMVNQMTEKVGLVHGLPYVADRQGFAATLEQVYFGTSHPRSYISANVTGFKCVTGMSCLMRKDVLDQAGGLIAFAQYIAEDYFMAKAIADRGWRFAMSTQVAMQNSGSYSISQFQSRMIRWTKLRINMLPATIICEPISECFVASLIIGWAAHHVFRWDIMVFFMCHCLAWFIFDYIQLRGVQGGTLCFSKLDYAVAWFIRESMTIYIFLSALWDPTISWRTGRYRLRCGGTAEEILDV

IC50 [1] [µM] | IC50 [2] [µM] | Compound
< 0.01 | ≤ 0.01 | O=C(N[C@H](CN1CCCC1)[C@H](O)c1ccc(OC2CC2)c(Cl)c1)C1=NOCc2cc(-c3ccc(F)cc3)ccc21 [Example 1, N-((1R,2R)-1-(3-chloro-4-cyclopropoxyphenyl)-1-hydroxy-3-(pyrrolidin-1-yl)propan-2-yl)-7-(4-fluorophenyl)-1H-benzo[d][1,2]oxazine-4-carboxamide]
< 0.01 | ≤ 0.01 | O=C(N[C@H](CN1CCCC1)[C@H](O)c1ccc(OC2CC2)c(F)c1)C1=NOCc2cc(-c3ccc(F)cc3)ccc21 [Example 2, N-((1R,2R)-1-(4-cyclopropoxy-3-fluorophenyl)-1-hydroxy-3-(pyrrolidin-1-yl)propan-2-yl)-7-(4-fluorophenyl)-1H-benzo[d][1,2]oxazine-4-carboxamide]
< 0.01 | ≤ 0.01 | O=C(N[C@H](CN1CCCC1)[C@H](O)c1cc(F)c2c(c1)OCCO2)C1=NOCc2cc(-c3ccc(F)cc3)ccc21 [Example 3, N-((1R,2R)-1-(8-fluoro-2,3-dihydrobenzo[b][1,4]dioxin-6-yl)-1-hydroxy-3-(pyrrolidin-1-yl)propan-2-yl)-7-(4-fluorophenyl)-1H-benzo[d][1,2]oxazine-4-carboxamide]
0.01 to 0.1 | ≤ 0.01 | O=C(N[C@H](CN1CCCC1)[C@H](O)c1ccc(OC2CC2)cc1)C1=NOCc2cc(-c3ccc(F)cc3)ccc21 [Example 4, N-((1R,2R)-1-(4-cyclopropoxyphenyl)-1-hydroxy-3-(pyrrolidin-1-yl)propan-2-yl)-7-(4-fluorophenyl)-1H-benzo[d][1,2]oxazine-4-carboxamide]
0.01 to 0.1 | ≤ 0.01 | O=C(N[C@H](CN1CCC1)[C@H](O)c1ccc(OC2CC2)c(Cl)c1)C1=NOCc2cc(-c3ccc(F)cc3)ccc21 [Example 5, N-((1R,2R)-3-(azetidin-1-yl)-1-(3-chloro-4-cyclopropoxyphenyl)-1-hydroxypropan-2-yl)-7-(4-fluorophenyl)-1H-benzo[d][1,2]oxazine-4-carboxamide]
0.01 to 0.1 | ≤ 0.01 | O=C(N[C@H](CN1CCC1)[C@H](O)c1ccc(OC2CC2)cc1)C1=NOCc2cc(-c3ccc(F)cc3)ccc21 [Example 6, N-((1R,2R)-3-(azetidin-1-yl)-1-(4-cyclopropoxyphenyl)-1-hydroxypropan-2-yl)-7-(4-fluorophenyl)-1H-benzo[d][1,2]oxazine-4-carboxamide]
< 0.01 | ≤ 0.01 | O=C(N[C@H](CN1CCC1)[C@H](O)c1ccc(OC2CC2)c(F)c1)C1=NOCc2cc(-c3ccc(F)cc3)ccc21 [Example 7, N-((1R,2R)-3-(azetidin-1-yl)-1-(4-cyclopropoxy-3-fluorophenyl)-1-hydroxypropan-2-yl)-7-(4-fluorophenyl)-1H-benzo[d][1,2]oxazine-4-carboxamide]
< 0.01 | ≤ 0.01 | O=C(N[C@H](CN1CCCC1)[C@H](O)c1ccc(OC2CC2)c(F)c1)C1=NOCc2cc(-c3ccc(Cl)s3)ccc21 [Example 8, 7-(5-chlorothiophen-2-yl)-N-((1R,2R)-1-(4-cyclopropoxy-3-fluorophenyl)-1-hydroxy-3-(pyrrolidin-1-yl)propan-2-yl)-1H-benzo[d][1,2]oxazine-4-carboxamide]
< 0.01 | ≤ 0.01 | O=C(N[C@H](CN1CCC1)[C@H](O)c1ccc(OC2CC2)c(F)c1)C1=NOCc2cc(-c3ccc(Cl)s3)ccc21 [Example 9, N-((1R,2R)-3-(azetidin-1-yl)-1-(4-cyclopropoxy-3-fluorophenyl)-1-hydroxypropan-2-yl)-7-(5-chlorothiophen-2-yl)-1H-benzo[d][1,2]oxazine-4-carboxamide]
0.01 to 0.1 | ≤ 0.01 | O=C(N[C@H](CN1CCCC1)[C@H](O)c1ccc(OC2CC2)c(Cl)c1)C1=NOCc2cc(-c3ccc(Cl)s3)ccc21 [Example 10, N-((1R,2R)-1-(3-chloro-4-cyclopropoxyphenyl)-1-hydroxy-3-(pyrrolidin-1-yl)propan-2-yl)-7-(5-chlorothiophen-2-yl)-1H-benzo[d][1,2]oxazine-4-carboxamide]
0.01 to 0.1 | ≤ 0.01 | O=C(N[C@H](CN1CCC1)[C@H](O)c1ccc(OC2CC2)cc1)C1=NOCc2cc(-c3ccc(Cl)s3)ccc21 [Example 11, N-((1R,2R)-3-(azetidin-1-yl)-1-(4-cyclopropoxyphenyl)-1-hydroxypropan-2-yl)-7-(5-chlorothiophen-2-yl)-1H-benzo[d][1,2]oxazine-4-carboxamide]
0.01 to 0.1 | 0.01 to 0.1 | O=C(N[C@H](CN1CCCC1)[C@H](O)c1ccc(OC2CC2)c(F)c1)C1=NOCc2c1sc1cc(Cl)ccc21 [Example 12, 7-chloro-N-((1R,2R)-1-(4-cyclopropoxy-3-fluorophenyl)-1-hydroxy-3-(pyrrolidin-1-yl)propan-2-yl)-1H-benzo[4,5]thieno[2,3-d][1,2]oxazine-4-carboxamide]
0.01 to 0.1 | – | O=C(N[C@H](CN1CCCC1)[C@H](O)c1ccc(OC2CC2)c(Cl)c1)C1=NOCc2c1sc1cc(Cl)ccc21 [Example 13, 7-chloro-N-((1R,2R)-1-(3-chloro-4-cyclopropoxyphenyl)-1-hydroxy-3-(pyrrolidin-1-yl)propan-2-yl)-1H-benzo[4,5]thieno[2,3-d][1,2]oxazine-4-carboxamide]
0.1 to 1 | – | O=C(N[C@H](CN1CCC1)[C@H](O)c1ccc(OC2CC2)c(F)c1)C1=NOCc2c1sc1cc(Cl)ccc21 [Example 15, N-((1R,2R)-3-(azetidin-1-yl)-1-(4-cyclopropoxy-3-fluorophenyl)-1-hydroxypropan-2-yl)-7-chloro-1H-benzo[4,5]thieno[2,3-d][1,2]oxazine-4-carboxamide]
0.1 to 1 | – | O=C(N[C@H](CN1CCC1)[C@H](O)c1ccc(OC2CC2)c(Cl)c1)C1=NOCc2c1sc1cc(Cl)ccc21 [Example 16, N-((1R,2R)-3-(azetidin-1-yl)-1-(3-chloro-4-cyclopropoxyphenyl)-1-hydroxypropan-2-yl)-7-chloro-1H-benzo[4,5]thieno[2,3-d][1,2]oxazine-4-carboxamide]
0.1 to 1 | – | CC1(C)ON=C(C(=O)N[C@H](CN2CCCC2)[C@H](O)c2ccc(OC3CC3)c(Cl)c2)c2ccc(-c3ccc(F)cc3)cc21 [Example 23, N-((1R,2R)-1-(3-chloro-4-cyclopropoxyphenyl)-1-hydroxy-3-(pyrrolidin-1-yl)propan-2-yl)-7-(4-fluorophenyl)-1,1-dimethyl-1H-benzo[d][1,2]oxazine-4-carboxamide]
0.01 to 0.1 | – | O=C(N[C@H](CN1CCC1)[C@H](O)c1ccc(OC2CC2)cc1)C1=NCCc2cc(-c3ccc(F)cc3)ccc21 [Example 40, N-((1R,2R)-3-(azetidin-1-yl)-1-(4-cyclopropoxyphenyl)-1-hydroxypropan-2-yl)-6-(4-fluorophenyl)-3,4-dihydroisoquinoline-1-carboxamide]
0.1 to 1 | – | CC1(C)Cc2cc(-c3ccc(F)cc3)ccc2C(C(=O)N[C@H](CN2CCCC2)[C@H](O)c2ccc(OC3CC3)c(Cl)c2)=N1 [Example 41, N-((1R,2R)-1-(3-chloro-4-cyclopropoxyphenyl)-1-hydroxy-3-(pyrrolidin-1-yl)propan-2-yl)-6-(4-fluorophenyl)-3,3-dimethyl-3,4-dihydroisoquinoline-1-carboxamide]
0.1 to 1 | – | O=C(N[C@H](CN1CCCC1)[C@H](O)c1ccc(OC2CC2)c(Cl)c1)C1OCCc2cc(-c3ccc(F)cc3)ccc21 (stereo partly drawn) [Example 42, N-((1R,2R)-1-(3-chloro-4-cyclopropoxyphenyl)-1-hydroxy-3-(pyrrolidin-1-yl)propan-2-yl)-6-(4-fluorophenyl)isochroman-1-carboxamide]
0.1 to 1 | – | O=C(N[C@H](CN1CCCC1)[C@H](O)c1ccc(OC2CC2)c(Cl)c1)C1OCCc2c1sc1cc(Cl)ccc21 (stereo partly drawn) [Example 43, 7-chloro-N-((1R,2R)-1-(3-chloro-4-cyclopropoxyphenyl)-1-hydroxy-3-(pyrrolidin-1-yl)propan-2-yl)-3,4-dihydro-1H-benzo[4,5]thieno[2,3-c]pyran-1-carboxamide]
